Twelve molecules from DBAASP can be followed below.

≈ marks a conversion by molar mass, not a printed value.

Some test systems named below: Escherichia coli; Staphylococcus aureus; Pseudomonas aeruginosa.
Common to all, as to assay: ≥ marks a high value that may be exact or a test limit, other limits are often not marked, values filed in µg/mL are converted to µM
Test [1] relates to Pseudomonas aeruginosa ATCC 27853.
Test [2] concerns Staphylococcus aureus ATCC 29213.
Test [3] relates to Escherichia coli ATCC 25922.
The test system of test [4] is Staphylococcus epidermidis ATCC 12228.

Regarding `CC[C@H](C)[C@H](NC(=O)[C@H](CCCCN)NC(=O)[C@H](CCCCN)NC(=O)[C@H](C)N)C(=O)N[C@@H](CCCN=C(N)N)C(=O)N[C@H](C(=O)N[C@@H](CCCN=C(N)N)C(=O)N[C@@H](CC(C)C)C(=O)N[C@@H](CO)C(=O)N[C@@H](C)C(=O)O)C(C)C` [AKKIRVRLSA], the minimum inhibitory concentration (MIC) – broadly, the least concentration at which growth counts as inhibited – is 14 µM (≈ 16 µg/mL) in test [1], > 56.1 µM in test [2] and 14 µM (≈ 16 µg/mL) in test [3].
For `CC(C)C[C@H](NC(=O)[C@H](CCCCN)NC(=O)[C@@H]1CSSC[C@H](N)C(=O)N[C@@H](CCCCN)C(=O)N[C@@H](CCCCN)C(=O)N[C@@H](CC(C)C)C(=O)N[C@@H](CC(C)C)C(=O)N[C@@H](CCCCN)C(=O)N[C@@H](CC(C)C)C(=O)N[C@@H](CC(C)C)C(=O)N[C@@H](CCCCN)C(=O)N[C@@H](CCCCN)C(=O)N[C@@H](CC(C)C)C(=O)N1)C(=O)N[C@@H](C)C(=O)NCC(=O)O` [CKKLLKLLKKLCKLAG], the minimum inhibitory concentration (MIC) in test [2] is > 40 µM; in test [3], 5 µM (≈ 8.99 µg/mL); in the test on Escherichia coli, 20 µM (≈ 36 µg/mL).
As for `CC[C@H](C)[C@H](NC(=O)[C@H](CCCN=C(N)N)NC(=O)[C@H](CCC(N)=O)NC(=O)[C@@H](NC(=O)[C@@H](NC(=O)[C@H](CCCN=C(N)N)NC(=O)[C@H](CCCCN)NC(=O)[C@@H](N)Cc1ccccc1)[C@@H](C)CC)C(C)C)C(=O)N[C@@H](CCCCN)C(=O)N[C@@H](CC(=O)O)C(=O)N[C@@H](CC(N)=O)C(=O)N[C@@H](CC(C)C)C(=O)N[C@@H](CCCN=C(N)N)C(=O)O` [FKRIVQRIKDNLR], the results for the minimal inhibitory concentration (MIC) in test [2] and in test [3] were > 40 µM and 20 µM (≈ 33.7 µg/mL), respectively.
As to `CC[C@H](C)[C@H](NC(=O)[C@H](CCSC)NC(=O)[C@H](C)NC(=O)[C@@H]1CCCN1C(=O)[C@@H](NC(=O)[C@@H](NC(=O)[C@H](CCCCN)NC(=O)[C@@H](NC(=O)[C@H](CC(C)C)NC(=O)CNC(=O)CN)[C@@H](C)CC)[C@@H](C)CC)C(C)C)C(=O)N[C@H]1CSSC[C@@H](C(=O)O)NC(=O)[C@H](CCCCN)NC(=O)[C@H](CCCCN)NC(=O)[C@H]([C@@H](C)O)NC(=O)[C@H](C(C)C)NC(=O)[C@H](C)NC1=O` [GGLIKIVPAMICAVTKKC], the MIC in test [1] is > 139 µM; in test [2] it was 139 µM (≈ 256 µg/mL); in test [3], > 139 µM.
Turning to `CC[C@H](C)[C@H](NC(=O)CN)C(=O)NCC(=O)N[C@@H](CCCCN)C(=O)N[C@@H](Cc1ccccc1)C(=O)N[C@@H](CC(C)C)C(=O)N[C@@H](Cc1cnc[nH]1)C(=O)N[C@@H](CCCCN)C(=O)N[C@H](C(=O)NCC(=O)N[C@@H](CO)C(=O)N[C@@H](Cc1ccccc1)C(=O)N[C@H](C(=O)N[C@@H](CCCCN)C(=O)N[C@@H](CO)C(=O)N[C@@H](Cc1c[nH]c2ccccc12)C(=O)N[C@@H](CCCCN)C(=O)NCC(=O)N[C@@H](CCC(=O)O)C(=O)N[C@H](C(=O)N[C@@H](CCSC)C(=O)N[C@@H](CC(N)=O)C(=O)N[C@@H](CO)C(N)=O)[C@@H](C)CC)[C@@H](C)CC)C(C)C` [GIGKFLHKVGSFIKSWKGEIMNS], the figures for the minimal inhibitory concentration (MIC) in test [1], in test [2] and in test [3] were 51.3 µM (≈ 131 µg/mL), 73 µM (≈ 187 µg/mL) and 5 µM (≈ 12.8 µg/mL), respectively.
Consider `CC[C@H](C)[C@H](NC(=O)CN)C(=O)N[C@@H](CCCCN)C(=O)N[C@@H](CCCCN)C(=O)N[C@@H](Cc1c[nH]c2ccccc12)C(=O)N[C@@H](CC(C)C)C(=O)N[C@@H](Cc1cnc[nH]1)C(=O)N[C@@H](CO)C(=O)N[C@@H](C)C(=O)N[C@@H](CCCCN)C(=O)N[C@@H](CCCCN)C(=O)N1CCC[C@H]1C(=O)N1CCC[C@H]1C(=O)N[C@@H](CCCCN)C(=O)N[C@@H](CCCCN)C(=O)N[C@@H](Cc1ccccc1)C(=O)N[C@H](C(=O)N[C@@H](CCCCN)C(=O)N[C@@H](CCCCN)C(=O)N[C@H](C(=O)N[C@@H](CCSC)C(=O)N[C@@H](CC(N)=O)C(=O)N[C@@H](CO)C(N)=O)[C@@H](C)CC)C(C)C` [GIKKWLHSAKKPPKKFVKKIMNS], for which the MIC in test [4] is 10 µM (≈ 26.9 µg/mL); in test [3], > 80 µM.
In the case of `CC[C@H](C)[C@H](N)C(=O)N[C@H](C(=O)N[C@@H](CO)C(=O)N[C@H](C(=O)N[C@H](C(=O)NCC(=O)N[C@@H](CCCCN)C(=O)N[C@@H](CC(C)C)C(=O)N1CCC[C@H]1C(=O)N[C@@H](CCCCN)C(=O)N[C@@H](Cc1c[nH]c2ccccc12)C(=O)N[C@H](C(=O)N[C@H](C(=O)N[C@@H](CCCCN)C(=O)N[C@H](C(=O)N[C@H](C(=O)N[C@@H](CC(N)=O)C(=O)N[C@@H](CCCCN)C(=O)N[C@@H](Cc1ccccc1)C(=O)N[C@H](C(=O)N[C@@H](CCCCN)C(=O)N[C@@H](CCCCN)C(=O)O)[C@@H](C)O)C(C)C)[C@@H](C)O)[C@@H](C)CC)[C@@H](C)CC)[C@@H](C)CC)[C@@H](C)O)[C@@H](C)CC` [IISTIGKLPKWIIKTVNKFTKK], the minimum inhibitory concentration (MIC) in the test on Escherichia coli was found to be 2.7 µM (≈ 6.9 µg/mL); in the test with Staphylococcus aureus, 22 µM (≈ 56.3 µg/mL).
As for `CC(=O)N[C@@H](CCCCN)C(=O)N[C@@H](CC(C)C)C(=O)N[C@@H](CC(C)C)C(=O)N[C@@H](CCCCN)C(=O)N[C@@H](CC(C)C)C(=O)N[C@@H](CC(C)C)C(=O)N[C@@H](CCCCN)C(=O)N[C@@H](CCCCN)C(=O)N[C@@H](CC(C)C)C(=O)N[C@@H](CC(C)C)C(=O)N[C@@H](CCCCN)C(=O)N1CCC[C@H]1C(=O)N[C@@H](CC(C)C)C(=O)N[C@@H](CCCCN)C(N)=O` [KLLKLLKKLLKPLK], the results for the MIC in test [2] and in test [3] were 10 µM (≈ 17.2 µg/mL) and 28.3 µM (≈ 48.6 µg/mL), respectively.
Regarding `CC(=O)N[C@@H](CCCCN)C(=O)N[C@@H](CC(C)C)C(=O)N[C@@H](CC(C)C)C(=O)N[C@@H](CCCCN)C(=O)N[C@@H](CC(C)C)C(=O)N[C@@H](CC(C)C)C(=O)N1CCC[C@H]1C(=O)N[C@@H](CCCCN)C(=O)N[C@@H](CC(C)C)C(=O)N[C@@H](CC(C)C)C(=O)N[C@@H](CCCCN)C(=O)N[C@@H](CC(C)C)C(=O)N[C@@H](CC(C)C)C(=O)N[C@@H](CCCCN)C(N)=O` [KLLKLLPKLLKLLK], the figures for the minimal inhibitory concentration (MIC) in test [2] and in test [3] were 5 µM (≈ 8.51 µg/mL) and 10 µM (≈ 17 µg/mL), respectively.
`CC[C@H](C)[C@H](NC(=O)[C@H](Cc1ccccc1)NC(=O)[C@H](CO)NC(=O)[C@H](CCCCN)NC(=O)[C@H](Cc1c[nH]c2ccccc12)NC(=O)[C@@H](N)CCCCN)C(=O)N[C@@H](CCCCN)C(=O)N[C@@H](CCCCN)C(=O)N[C@@H](CC(C)C)C(=O)N[C@@H](CC(C)C)C(=O)N[C@@H](CO)C(=O)N[C@@H](CCCCN)C(=O)N[C@@H](Cc1ccccc1)C(=O)N[C@@H](CC(C)C)C(=O)N[C@@H](Cc1cnc[nH]1)C(=O)N[C@@H](CO)C(=O)N[C@@H](C)C(=O)N[C@@H](CCCCN)C(=O)N[C@@H](CCCCN)C(=O)N[C@@H](Cc1ccccc1)C(N)=O` [KWKSFIKKLLSKFLHSAKKF] had a minimal inhibitory concentration (MIC) against Pseudomonas aeruginosa of 5.07 µM (≈ 12.5 µg/mL).
On to `CC(C)[C@H](NC(=O)[C@H](Cc1c[nH]c2ccccc12)NC(=O)[C@H](CCCCN)NC(=O)[C@@H](N)CCCN=C(N)N)C(=O)N[C@@H](CCCCN)C(=O)N[C@@H](Cc1c[nH]c2ccccc12)C(=O)N[C@@H](CCCN=C(N)N)C(=O)N[C@@H](CC(N)=O)C(=O)N[C@@H](CCCN=C(N)N)C(=O)O` [RKWVKWRNR], for which the figures for the MIC in test [2] and in test [3] were 23.5 µM (≈ 31.3 µg/mL) and 94.1 µM (≈ 125 µg/mL), respectively.
Consider `NC(=O)[C@H](Cc1ccccc1)NC(=O)[C@H](Cc1ccccc1)NC(=O)[C@H](Cc1ccccc1)NC(=O)[C@@H]1CCCN1C(=O)[C@H](CCCN=C(N)N)NC(=O)[C@@H]1CCCN1C(=O)[C@H](CCCN=C(N)N)NC(=O)[C@@H]1CCCN1C(=O)[C@H](CCCN=C(N)N)NC(=O)[C@@H]1CCCN1C(=O)[C@H](CCCN=C(N)N)NC(=O)[C@@H](N)CCCN=C(N)N` [RRPRPRPRPFFF], for which the MIC in test [1] is > 160 µM; in test [2], 40 µM (≈ 65.1 µg/mL); in test [3], 80 µM (≈ 130 µg/mL).
